No end group written: not given here.
Key:
[1] = Solid-state Lipid A binding ELISA microplate assay; set-up: species or system Escherichia coli; conditions: for apparent binding affinity Ka for Lipid A: biotinylated derivatives, immobilized E. coli D31m4 Lipid A, Scatchard plot
Method: FIG. 3. Lipid A binding affinity of the synthetic peptides. Plastic ELISA microtiter plates were coated with purified E. coli D31m4 Lipid A at 1 μg/ml. Incubations were for 20 min with the indicated concentrations of synthetic peptides BP1, BP2 or BP2.1 or control peptide BPI(85-102) followed by streptavidin-HRP at a dilution of 1 in 20 000. Washing steps to remove excess peptide or streptavidin were with 50 mM Tris buffer pH 7.4 containing 0.05% (v/v) Tween 20. Development was with TMB substrate for 10 min. The optical density (O.D) at 450 nm was measured with a microplate reader and values were corrected for non-specific binding which was generally between 5 and 10%. The plotted values are the corrected means of triplicate experiments.
Double-immunodiffusion of the peptides of the invention against ‘rough’ R-type E. coli D31m4 Re-LPS (List Biological Laboratories Inc., Calif.) or the structurally more complex ‘smooth’ S-type E. coli 0111:B4 LPS (Sigma Chemical Co., Rockford, Ill.) was performed in 0.8% (w/v) agarose containing 50 mM Tris and 0.1% (w/v) Triton X100, pH 7.5. for 16 h at 20° C. PmB and BPI(85-102) were included as control compounds for comparative purposes. The microprecipitates formed were visualized by Coommassie brilliant blue staining. […] Since the amount of precipitate formed is a function of valency, the peptides of the invention appear to be capable of a high degree of intermolecular binding of LPS molecules via the Lipid A moieties. […] A turbidity assay was employed for a direct comparison of the endotoxin-binding activity or avidity of selected synthetic peptides according to the invention using the ‘rough’ serotypes E. coli Re or Rc (J5) LPS. PmB and BPI(85-102) were included as control compounds for comparative purposes. The degree of precipitation of endotoxin by the synthetic peptides according to the invention was determined by measurement of the optical density of insoluble complexes formed at 340 nm (FIG. 2). In most instances optimal complexation of Re or J5 LPS by the synthetic peptides of the invention was evident at a molar ratio of peptide to endotoxin of 1 to 2. The control BPI(85-102) peptide was required at a 4-fold molar excess for approximately the same degree of complexation. […] There was no significant difference between complexation of Re or the structurally more complex J5-LPS by the synthetic peptides. […] The Lipid A binding affinity of the synthetic peptides were directly compared in a solid-state endotoxin-binding assay. Binding characteristics of biotinylated derivatives of the synthetic peptides BP1, BP2, BP2.1 and the control peptide BPI(85-102) were determined on ELISA microtiter plates coated with E. coli D31m4 Lipid A. Specific binding of the biotinylated peptides to the immobilized Lipid A was determined by development with Streptavidin-HRP and 3, 5, 3′, 5′ tetra-methylbenzidine (TMB) substrate and expressed as the corrected optical density at 450 nm. […] The affinity of the novel synthetic peptide BP2 for endotoxin of increasing complexity as well as the effect of plasma on binding was examined with the use of the ELISA microplate assay.

[2] = test system: TNF-α production; assay: TNF-α in whole blood ex vivo after pre-incubation of LPS with peptide; format: cell-based, human; conditions: 1 to 10 μg/ml pre-incubated with 1 ng/ml LPS, even at lowest concentration 1 μg/ml, 4 h at 37° C.
Method: FIG. 11. Effect of pre-incubation of E. coli 0111:B4 LPS with synthetic peptides or Polymyxin B on TNF-α levels in whole blood ex vivo. The indicated amounts of synthetic, control peptides or PmB were pre-incubated with E. coli 0111:B4 LPS at 1 ng/ml for […] at 23° C., added to whole blood containing heparin at 2 I.U/ml and the TNF-α concentrations determined after incubation for 4 h at 37° C. Each value is the mean of triplicate experiments. Controls only contained LPS.
In addition, the LPS-neutralizing activity of selected synthetic peptides of the invention were compared in a more complex environment of whole blood ex vivo to determine the effect of physiological concentrations of blood components such as plasma proteins, blood cells etc. on the detoxification efficacy. In pre-incubation experiments, concentrations of synthetic peptides, control peptide or PmB from 1 to 10 μg/ml were pre-incubated with 1 ng/ml E. coli 0111:B4 LPS in pyrogen-free saline for 30 min at 23° C., added to venous blood containing heparin at 2 I.U/ml as anti-coagulant and incubated for 4 h at 37° C. TNF-α concentrations were determined in appropriately diluted cell-free supernatants as described before.

Substance | difference in binding affinity for Lipid A compared with BPI(85-102) [1] | fold higher affinity for Lipid A compared with Polymyxin B [1] | apparent binding affinity Ka for Lipid A [1] [M⁻¹] | inhibition of TNF-α production [2]
GKWKLFKKAFKKFLKILAC-OH [BP2, Gly-Lys-Trp-Lys-Leu-Phe-Lys-Lys-Ala-Phe-Lys-Lys-Phe-Leu-Lys-Ile-Leu-Ala-Cys] | ~10 fold | approximately 20 fold | 1.9e+08 | almost complete inhibition
Ile-Lys-Ile-Ser-Gly-Lys-Trp-Lys-Ala-Gin-Lys-Arg-Phe-Leu-Lys-Met-Ser-Gly-(Cys) (IKISGKWKAQKRFLKMSGC; listed as Homo sapiens) [BPI(85-102), reference compound] | – | – | 2e+07 | almost complete inhibition
GRLRKKWKAFKKFLKILAC [BP1] | approximately 5 fold | – | 9e+07 | almost complete inhibition
